This is an account of results in patent publication US20160199361A1, “Method of Inducing An Anti-Retroviral Immune Response By Counter-Acting Retro-Virus Induced Anti-Apoptosis” (RUTGERS, THE STATE UNIVERSITY OF NEW JERSEY, priority 2013, published 2016).

For data set [1], the system named is HIV-1. Conditions: zidovudine monotherapy, reference range; cited from earlier work.
Data set [2] deals with clinical isolates of HIV-1. The data set can be described thus: HIV-1 p24 and HIV-1 RNA in isolate-infected, long-term replenished primary cell (PBMC) cultures. It is filed as cell-based. The note with it: for p24 relative to controls: within two weeks, PBMCs stably infected with clinical isolates; for number of infective virions produced: use without interruption for up to three weeks, unchanged at least three months after discontinuation. The protocol: Reagents and cells. Drug-grade deferiprone was kindly provided by Apotex (Toronto, Canada). PBMCs were isolated from the blood of healthy donors, per an IRB-approved protocol, and stimulated overnight with phytohemagglutinin (PHA) and human IL-2. Stimulated cells were pelleted and resuspended for culture at a final concentration of 0.5×10^6 cells/ml in PHA-free RPMI 1640 medium containing 10% fetal calf serum (v/v), 100 units/ml penicillin G, 100 μg/ml streptomycin, 2 mM […], and 3.5 ng/ml human IL-2 (Medium B). Cultures were incubated at 37° C., 5% CO2, and 95% humidity.
To obtain clinical isolates of HIV-1, donors were consented to provide blood samples per an IRB-approved protocol. For infection, 5×10^6 uninfected stimulated PBMCs were co-cultured with 10×10^6 PBMCs from one of the HIV-infected donors in Medium B. On day 3, half of the supernatant was removed and replenished with an equal volume of fresh Medium B. On day 7, the medium was likewise replenished and 7.5×10^6 stimulated uninfected PBMCs were added. On days 10, 17, and 24, half of the supernatant was replenished. On days 14, 21, and 28, stimulated uninfected PBMCs were added. Cells were harvested when p24 reached 250 pg/ml, cryopreserved in freezing medium (90% fetal calf serum, 10% dimethyl sulfoxide), and stored in liquid nitrogen as infected PBMC stock. Cell-free supernatants were stored at −80° C.
(§1) To establish persistent infection of cultured PBMCs, uninfected cells (5×10^6 cells) and infected PBMC stock (0.5×10^6 cells) were co-incubated in a 25 ml culture flask at a final concentration of 0.22×10^6 cells/ml. Cultures were allowed to establish productive infection, defined by medium p24 at or above 250 pg/ml, and deferiprone was added. Cultures were replenished with Medium B and freshly isolated uninfected PBMCs on alternate days. For replacement of Medium B, half of the supernatant was gently exchanged without disturbing the cells, and the drug concentration was adjusted appropriately. For replacement with freshly isolated, stimulated and uninfected PBMCs, half of the cells and supernatant were removed and replaced with 2.5×10^6 cells in the proper volume of Medium B, with adjustment of the drug concentration. Cell-free supernatants were saved for p24 and viral RNA measurements.
(§2) Detection of p24, viral RNA, and viral DNA. p24 core antigen in the supernatant was quantified by ELISA (Retrotek HIV-1 p24™; ZeptoMetrix Corp.; Buffalo, N.Y.). HIV-1 RNA copy number in the supernatant of PBMC cultures and in plasma of patients enrolled in the exploratory deferiprone trial was determined with a PCR-based and FDA-approved assay (Amplicor HIV-1 Monitor™; Roche Diagnostics Corp.; Indianapolis, Ind.). For clinical samples, the assay was used per the Standard Specimen Processing Procedure (sensitivity limit 400 copies/ml); for cell culture samples, the assay was used in both the Standard Specimen Processing and the UltraSensitive Specimen Processing Procedure (sensitivity limit 50 copies/ml). The Roche Amplicor HIV-1 DNA Test (Roche Diagnostics Corp.; Indianapolis, Ind.) was used for qualitative detection of HIV-1 DNA.

Data set [3] concerns HIV-1. The data set can be described thus: Exploratory pilot trial: plasma HIV-1 RNA in HIV-1-infected treatment-naive persons. It is filed as in vivo, human. The protocol:
as §2
Two oral dose levels of deferiprone were tested, 33 mg/kg (33 mg/kg QD on days 1 and 7, and 33 mg/kg TID on days 2-6 [seven asymptomatic HIV-infected antiretroviral-naive persons]) and 50 mg/kg (50 mg/kg QD on days 1 and 7, and 50 mg/kg TID on days 2-6 [six healthy volunteers and seven asymptomatic HIV-infected antiretroviral-naive persons, four of whom completed the treatment period]).
Each cohort was unblinded only at study completion. […] Secondary parameters included pharmacokinetic variables (e.g. peak serum concentration) in serum, drawn after initial drug ingestion at fixed hours (0, 0.5, 1, 1.5, 2, 3, 4, 6, 9, 12). […] Viral load was measured as described above.
For the cell culture experiments with deferiprone and the exploratory clinical trial, descriptive statistics were generated using Microsoft Excel 2011. In the exploratory trial, outcome analysis was performed to assess the intercohort and intraindividual virological response to deferiprone, using Student's t-test for log10-based analysis of the time-specified differentials (Δ log) between the cohort identified medians (±standard error of the mean [SEM]) generated from the multiple measurements per subject on treatment minus before treatment. (‘response’ in the first stage of the protocol) and off treatment minus before treatment (‘rebound’ in the second stage of the treatment). P<0.05 was used as criterion for statistical significance. […] To assess the in vivo antiretroviral activity of deferiprone in a hypothesis-independent manner, the Δ log of the HIV-1 RNA levels achieved in the first and the second stage of the protocol was analyzed after post-treatment segregation into ‘responders’ and ‘non-responders’ per the discontinuation trial design (DTD).

The test system of data set [4] is PBMCs. The data set can be described thus: Cell viability and apoptotic volume decrease by trypan blue image analysis in replenished PBMC cultures. It is filed as cell-based, human. Conditions: 200 μM. The protocol:
Quantitation of cell number, viability, diameter, and apoptotic volume decrease. These parameters were measured in PBMC cultures by computerized image analysis of trypan blue exclusion (VI-CELL™; Beckman Coulter; Fullerton, Calif.).

Data set [5] relates to PBMCs acutely infected with HIV-1. The data set can be described thus: Apoptotic DNA fragmentation (TUNEL) in non-replenished short-term PBMC cultures infected with HIV-1 isolate. It is filed as cell-based, human. The protocol: (§3) Reagents and cells. Drug-grade deferiprone was kindly provided by Apotex (Toronto, Canada). PBMCs were isolated from the blood of healthy donors, per an IRB-approved protocol, and stimulated overnight with phytohemagglutinin (PHA) and human IL-2. […] Cultures were incubated at 37° C., 5% CO2, and 95% humidity. DNA fragmentation assay. Apoptotic DNA fragmentation was quantified flow-cytometrically, using a TUNEL (terminal deoxynucleotide transferase dUTP nick end-labeling) assay (APO-BRDU™; Phoenix Flow Systems; San Diego, Calif.).

In data set [6] the test system is infected T-cell lines. The data set can be described thus: Suppression of HIV-1 generation and selective induction of apoptosis in infected T-cell lines. It is filed as cell-based.
Data set [7] deals with HIV-1 DNA. The data set can be described thus: Qualitative detection of HIV-1 DNA in infected replenished PBMC cultures. It is filed as cell-based. The note with it: 200 μM, 10 days of post-cessation monitoring. The protocol: as §1
Detection of p24, viral RNA, and viral DNA. p24 core antigen in the supernatant was quantified by ELISA (Retrotek HIV-1 p24™; ZeptoMetrix Corp.; Buffalo, N.Y.). HIV-1 RNA copy number in the supernatant of PBMC cultures and in plasma of patients enrolled in the exploratory deferiprone trial was determined with a PCR-based and FDA-approved assay (Amplicor HIV-1 Monitor™; Roche Diagnostics Corp.; Indianapolis, Ind.). […]

For data set [8], the system named is uninfected PBMCs. The data set can be described thus: Apoptotic DNA fragmentation (TUNEL) in non-replenished short-term uninfected PBMC cultures. Conditions: 30 μM, 144 hours. It is filed as cell-based, human. The protocol:
as §3

Entries after “also recorded” stand apart in the source; their conditions may differ.

`Cc1cn([C@H]2C[C@H](N=[N+]=[N-])[C@@H](CO)O2)c(=O)[nH]c1=O` [zidovudine]: the “viral load decline on monotherapy” value in data set [1] is recorded as −0.3 log10.
Consider `Cc1c(O)c(=O)ccn1C` [deferiprone, 3-hydroxy-1,2-dimethylpyridin-4(1H)-one], for which, in data set [2] (100 μM, 35 days of treatment), the “rate of viral RNA rebound after cessation of drug” value is listed as “+0.24 log10/ml/day”. Moreover, the “decrease of viral copy number versus set-point of controls” value in data set [2] (100 μM, infected replenished cultures, weeks of treatment) is “decreased by just one log”. Besides, the “p24 relative to controls” value in data set [2] (100 μM) and in data set [2] (200 μM) was ≤ 10 % of controls each time. Also, the “viral RNA nadir” value in data set [2] (200 μM) is reported as 10^3 copies/ml. For the same compound, in data set [2] (200 μM, 16-day treated cultures), the “reduction of viral RNA copies versus infected untreated controls” value was “reduced by three orders of magnitude”. For the same compound, the “re-emergence of productive infection off-treatment” value in data set [2] (200 μM, after 90 days off-treatment) is on record as “no re-emergence of productive infection”. Moreover, the “decline of viral copy number” value in data set [2] (200 μM, continuous treatment) is listed as “falling by three logs”. For the same compound, the “time to reach nadir of <10^3 copies/ml” value in data set [2] (200 μM, depending on isolate - primary cell combination) is 2-4 weeks. Also, the “HIV-1 RNA rebound after drug discontinuation” value in data set [2] (200 μM, off drug, replenished cultures) is given as “viral RNA rebound is absent off drug; also recorded: did not rebound”. Besides, the “viral RNA after continued observed decline” value in data set [2] (200 μM, post-treatment) is on record as < 10^2 copies/ml. Also, the “on-drug rate of viral RNA decline” value in data set [2] (200 μM, appears to continue up to five days post cessation) is given as −0.04 log10/ml/day. For the same compound, the “time for post-treatment rebound to reacquire set-point” value in data set [2] (after cessation of 100 μM) is at most 72 h. Also, the “p24 expression and viral copy number” value in data set [2] (below 100 μM) was “marginally affected”. Further, the viral breakthrough entry in data set [2] (month-long monotherapy) was “did not elicit viral breakthrough”. The “number of infective virions produced” value in data set [2] is “undetectable levels”. Also, the “Δ log10 HIV-1 RNA, acute decline coinciding with peak concentrations ≧150 μM” value in data set [3] (50 mg/kg po TID group) is listed as −0.44±0.1 log10. Further, in data set [3] (Group A, the 6 of 7 with decline), the “Δ log10 HIV-1 RNA D7 vs. D1, subjects with acute viral load decline” value is reported as −0.42±0.05 log10. The “subjects with acute viral load decline” value in data set [3] (Group A, ≧150 μM in serum) is listed as 6 of 7. Besides, the “Δ log10 HIV-1 RNA D7 vs. D1” value in data set [3] (Group A, ≧150 μM in serum, 33 or 50 mg/kg po TID, N=7) was −0.40±0.1 log10; in data set [3] (Group B, did not achieve ≧150 μM in serum, deferiprone N=4), “+0.17±0.07 log10”. For the same compound, in data set [3] (end of first stage, 6 responders, 5 non-responders), the “difference responders vs non-responders, Δ log10 D7 vs. D1” value was determined as 0.64 log10. Further, the “difference responders vs non-responders, Δ log D53 vs. D1” value in data set [3] (end of second stage, 5 responders, 5 non-responders, off drug) worked out at 0.54 log. For the same compound, the “duration of persistent off-drug suppression as multiple of drug half-life” value in data set [3] (off-drug, human) is at least 200 times the half-life. In addition, the “antiretrovirally effective in vivo threshold (serum concentration)” value in data set [3] (serum, 11 treated subjects, P=0.0152 Fisher's Exact test) was at least 150 µM. Also, the “acute responders that did not reacquire viral load baseline” value in data set [3] (seven weeks post-treatment after one-week pulse) is 80%. Further, in data set [4], the apoptotic volume decrease result is reported as “not detectable”. The “viability (trypan blue)” value in data set [4] was at least 95%. Besides, the “induced apoptosis in infected versus uninfected PBMCs” value in data set [5] (200 μM, non-replenished short-term cultures) was “significantly (P≦0.009) exceeded that in uninfected PBMCs”. Further, the “concentration required for effective suppression of HIV-1 generation and selective induction of apoptosis” value in data set [6] is given as “at least 150 μM”. The “HIV-1 DNA in post-treatment cultures” value in data set [7] is on record as “either negative or at the lower limit of detectability”.
In the case of `Cc1cc(C2CCCCC2)n(O)c(=O)c1` [ciclopirox], in data set [8], the “cells with fragmented DNA (apoptotic), uninfected treated cultures” value stood at 24.1±3.2%. In addition, the “number of infective virions produced” value in data set [2] was “undetectable levels”. Also, in data set [5] (30 μM, 144 hours after inoculation), the “cells with fragmented DNA (apoptotic), infected treated cultures” value is reported as 71.8±8.8%.
